Experimental data as given in US4334067A, “Flavan compounds and acid addition salts thereof” (Maruko Seiyaku Co., Ltd., priority 1979, dated 1982).
Counter-ions that a name gives are not always drawn.

Assays:
ddY male mice = assay: Anti-convulsive activity (pulse from corneal electrode); format: in vivo; conditions: 60 mg/kg intraperitoneally, 15 minutes before pulse; compared with Phenytoin 40 mg/kg
Protocol: The test compound was administered intraperitoneally to ddY male mice (weighing 20 to 25 g, 7 mice per group), and, 15 minutes thereafter, pulse (A.C. 100 V, 200 msec.) was applied to the mice from a corneal electrode, and the duration time of tonic flexor, tonic extensor and clonic convulsion were determined.

Acute toxicity = conditions: mouse, in vivo, 7 days observation
Protocol: […] After observing general conditions of mice for 7 days after administration, 50% lethal dose [LD50 (mg/kg)] was determined.

Wistar male rats [1] = assay: Anti-arrhythmic activity (aconitine-induced arrhythmia); format: in vivo; conditions: 10 mg/kg, 10 minutes before aconitine; compared with Ajmaline 5 mg/kg
Protocol: An aqueous solution of aconitine was injected continuously at a rate of 3 μg/kg/minute to Wistar male rats (weighing 220 to 270 g, five rats per group) through a polyethylene cannula inserted into the femoral vein. The test compounds were administered 10 minutes before the administration of aconitine.
The cardiac arrhythmia was determined by electrocardiographic recording of II lead on the limbs and the generation of descending large QRS complex was taken as the ventricular extrasystole and the observation was conducted until ventricular fibrillation was produced.

Wistar male rats [2] = assay: Diuretic activity; format: in vivo; conditions: oral, urine collected 5 hours, control = 1.0
Protocol: Wistar male rats (weighing 200 to 250 g, 9 rats per group) fasted 18 hours before the test but freely received drinking water were used. A 0.9% (by weight) physiological saline solution containing the test compound was orally charged through a stomach tube in an amount of 3 ml/100 g of body weight. Immediately thereafter, the rats were placed in a stainless steel cage and the urine was collected during a period of 5 hours after the administration and the urine volume was measured.

BALB/C type male mice = assay: Anti-ulcerous activity (restraint water-immersion stress ulcer); format: in vivo; conditions: for Ulcerous Index: control 54.4 mm; for % Inhibition: inhibition of stress ulcer versus control
Protocol: BALB/C type male mice weighing about 20 g which fasted for 17 hours before the test were placed in a poly(vinyl chloride) cyclindrical restraint cage having an inside diameter of 35 mm and the mice were immersed in water at 15° C. to the level of xiphisternum of mice for a period of 5 hours. Immediately thereafter, stomach was extracted and 1 ml of 0.5% (by weight) formalin solution was injected into the stomach. After fixing for about 10 minutes, the stomach was incised along the greater curvature thereof and the ulcer generated was obserbed by a stereoscopic microcope.

CCN(CC)CCN[C@H]1c2ccccc2O[C@H](c2ccc(OC)cc2)[C@@H]1O (relative stereo) [Compound A, 2,3-cis-3,4-trans-4-(2-diethylaminoethylamino)-4'-methoxyflavan-3-ol dimaleate]
anti-convulsive activity (ddY male mice): comparable to that of Phenytoin | LD50 at 168 h (Acute toxicity; iv): 1000 mg/kg | LD50 at 168 h (Acute toxicity; po): 2000 mg/kg

COc1ccc([C@H]2Oc3ccccc3[C@H](N3CCN(C)CC3)[C@H]2O)cc1 (relative stereo) [Compound B, 2,3-cis-3,4-trans-4'-methoxy-4-(4-methylpiperazin-1-yl)flavan-3-ol dimaleate]
anti-convulsive activity (ddY male mice): comparable to that of Phenytoin | activity for prolonging the time required for producing the cardiac arrhythmia (Wistar male rats [1]): superior to Ajmaline | LD50 at 168 h (Acute toxicity; iv): 1000 mg/kg | LD50 at 168 h (Acute toxicity; po): 2000 mg/kg

COc1ccc([C@H]2Oc3ccccc3[C@H](NCCCN3CCOCC3)[C@H]2O)cc1 (relative stereo) [Compound C, 2,3-cis-3,4-trans-4'-methoxy-4-(3-morpholinopropylamino)flavan-3-ol dimaleate]
anti-convulsive activity (ddY male mice): comparable to that of Phenytoin | Volume Ratio of Urine (Wistar male rats [2]; 100 mg/kg): 2.1 | LD50 at 168 h (Acute toxicity; iv): 500 mg/kg | LD50 at 168 h (Acute toxicity; po): 1500 mg/kg

COc1ccc([C@H]2Oc3ccccc3[C@H](NCCCN(C)C)[C@H]2O)cc1 (relative stereo) [Compound D, 2,3-cis-3,4-trans-4-(3-dimethylaminopropylamino)-4'-methoxyflavan-3-ol]
LD50 at 168 h (Acute toxicity; iv): 1000 mg/kg | LD50 at 168 h (Acute toxicity; po): 1500 mg/kg

O[C@H]1[C@H](c2ccccc2)Oc2ccccc2[C@@H]1N1CCCCC1 (relative stereo) [Compound E, 2,3-trans-3,4-trans-4-piperidinoflavan-3-ol maleate]
anti-convulsive activity (ddY male mice): comparable to that of Phenytoin | Volume Ratio of Urine (Wistar male rats [2]; 100 mg/kg): 2.8 | LD50 at 168 h (Acute toxicity; iv): 1000 mg/kg | LD50 at 168 h (Acute toxicity; po): 1500 mg/kg

CN1CCN([C@H]2c3ccccc3O[C@@H](c3ccccc3)[C@@H]2O)CC1 (relative stereo) [Compound F, 2,3-trans-3,4-trans-4-(4-methylpiperazin-1-yl)flavan-3-ol dimaleate]
Volume Ratio of Urine (Wistar male rats [2]; 100 mg/kg): 2.2 | LD50 at 168 h (Acute toxicity; iv): 300 mg/kg | LD50 at 168 h (Acute toxicity; po): 300 mg/kg

CC(=O)O[C@H]1[C@H](c2ccccc2)Oc2ccccc2[C@@H]1N1CCN(C)CC1 (relative stereo) [Compound G, 2,3-trans-3,4-trans-3-acetoxy-4-(4-methylpiperazin-1-yl)flavan dimaleate]
Volume Ratio of Urine (Wistar male rats [2]; 50 mg/kg): 3.0 | Ulcerous Index (BALB/C type male mice; 10 mg/kg): 37.6 mm | % Inhibition (BALB/C type male mice; 10 mg/kg): 30.8% | Ulcerous Index (BALB/C type male mice; 50 mg/kg): 14.3 mm | % Inhibition (BALB/C type male mice; 50 mg/kg): 73.7% | LD50 at 168 h (Acute toxicity; iv): 300 mg/kg | LD50 at 168 h (Acute toxicity; po): 1000 mg/kg

CN(C)CCN[C@H]1c2ccccc2O[C@@H](c2ccccc2)[C@@H]1O (relative stereo) [Compound H, 2,3-trans-3,4-trans-4-(2-dimethylaminoethylamino)-flavan-3-ol dimaleate]
activity for prolonging the time required for producing the cardiac arrhythmia (Wistar male rats [1]): superior to Ajmaline | LD50 at 168 h (Acute toxicity; iv): 300 mg/kg | LD50 at 168 h (Acute toxicity; po): 300 mg/kg

CN1[C@@H]2CC[C@H]1C[C@@H](OC(=O)C(CO)c1ccccc1)C2 (some centres unmarked) [Atropine Sulfate, reference compound]
Ulcerous Index (BALB/C type male mice; 10 mg/kg): 30.7 mm | % Inhibition (BALB/C type male mice; 10 mg/kg): 43.8%
